For orientation: bioavailability means the share of a dose that reaches the circulation, judged against a reference dose that is usually intravenous.

Here are results for two compounds from patent US12263226B1, “Neratinib-cyclodextrin composition and method for preparing same” (Hangzhou Jitai Pharmaceutical Technology Co., Ltd, priority 2024, dated 2025).

For series [1] the following is noted: cited from earlier work.
The procedure of series [2]:
Preparation of FaSSIF solution (fasted state simulated intestinal fluid, pH 6.5): 0.42 g of NaOH, 3.44 g of NaH2PO4, and 6.19 g of NaCl were added into a beaker before 900 mL of purified water was added. The pH was adjusted and the volume was brought to 1 L with purified water. 2.24 g of FaSSIF powder was added into the 1-L buffer.
Solubility measurement: 400 μL of the FaSSIF solution was added into a scintillation flask, and a small amount of the neratinib-cyclodextrin composition powder was gradually added at room temperature with magnetic stirring until a precipitate was observed. The addition amount of the powder was recorded. The solubility of neratinib maleate was calculated from the loading amount of the powder. Dissolution measurement of the neratinib maleate substance (API): 400 μL of the FaSSIF solution was added into a scintillation flask. An excessive amount of neratinib maleate substance was added.

Read-outs that look alike come from different tables or passages of the source.

Regarding `CCOc1cc2ncc(C#N)c(Nc3ccc(OCc4ccccn4)c(Cl)c3)c2cc1NC(=O)/C=C/CN(C)C` [neratinib, (E)-N-[4-[3-chloro-4-(pyridin-2-ylmethoxy)anilino]-3-cyano-7-ethoxyquinolin-6-yl]-4-(dimethylamino) but-2-enamide], in series [1] (fasting conditions in humans), the bioavailability is less than 17%. Further, the “decrease of area under curve (AUC) without the high-fat meal” value in series [1] (humans, approved tablet) is recorded as 2.2 times.

Take neratinib maleate: the “solubility of neratinib maleate” value in series [2] (FaSSIF, excess substance, stirred at room temperature 48 h, supernatant by HPLC) came out at 7.4 µg/mL; in series [2] (neutral conditions (pH 6.5)) it was 7.4 µg/mL.
